# Results as given in paper PMC11207040, “Synthesis and Biological Studies of New Temporin A Analogs Containing Unnatural Amino Acids in Position 7” (Pharmaceutics, 2024).
# Where two headings read alike, the source gives them in different places. Non-standard residues stand in square brackets, D forms with d. Residues, ends and D or L forms follow the SMILES beside them. Orn = NCCC[C@H](N)C(=O)O
# Columns and labels:
# [1] = 3T3 NRU cytotoxicity/phototoxicity test; type: cell-based, mouse; details: mouse
# Method: (§1) The cell lines BALB 3T3 (mouse embryonic fibroblasts) and MCF-12F (human breast epithelial cells) were used as models for healthy tissue. The MCF-7 and MDA-MB-231 cell lines were used as in vitro models for luminal A- and basal B-type breast cancer, respectively. Cell lines were obtained from the American Type Cultures Collection (ATCC, Manassas, VA, USA). Cells were cultured in Dulbecco modified Eagle’s medium (DMEM) supplemented with 10% fetal bovine serum (FBS), 100 U/mL penicillin, and 0.1 mg/mL streptomycin (Sigma-Aldrich, Schnelldorf, Germany) in an incubator at 37 °C, 5% CO2 and 95% humidity. Plastic flasks 75 cm^2 (Biologix, Lenexa, KS, USA) were used to grow the cells.
# (§2) The cytotoxicity/phototoxicity testing was performed as described by the OECD Guidelines for the Testing of Chemicals, Section 4, Test No. 432: In Vitro 3T3 NRU Phototoxicity Test. BALB 3T3, clone A31 cells were grown in 75 cm^2 tissue culture flasks in DMEM high-glucose (4.5 g/L), 10% FBS, and antibiotics at 37.5 °C, in a humidified atmosphere under 5% CO2. Cells were plated at 1 × 10^4 cells / 100 μL culture medium in each well of 96-well microplates and allowed to adhere for 24 h before treatment with test compounds. Peptides were dissolved in DMSO and diluted with culture medium to working concentrations from 4 to 1000 μM. In phototoxicity tests, 96-well plates were irradiated (+Irr) with a dose of 2.4 J/cm^2 using an artificial solar light simulator Helios-iO (SERIC Ltd., Tokyo, Japan), and the cells were incubated for an additional 24 h. After treatment with a Neutral Red medium, washing, and application of the NR Desorb solution, the absorption was measured on a microplate reader at a wavelength of 540 nm. Cytotoxicity/phototoxicity was expressed as CC50 values (concentrations required for 50% cytotoxicity).
# [2] = tested on: BALB 3T3 clone A31 cells; test: 3T3 NRU cytotoxicity/phototoxicity test; type: cell-based, mouse
# Method: as §1, §2
# [3] = tested on: MCF-12F cells; test: MTT antiproliferative assay, MCF-12F; type: cell-based, human; details: 72 h, non-tumorigenic cell line, read-out: Mean IC50 ± SD, MCF-12F
# Method: as §1
# (§3) The antiproliferative activity testing was performed on cell cultures using the MTT-dye reduction assay. This assay is based on the metabolism of MTT to insoluble formazan by mitochondrial reductases. The formazan concentration can be determined spectrophotometrically. The measured absorption is an indicator of cell viability. Cell lines (MCF-12F, MCF-7 and MDA-MB-231) were used in the experiments. Cells were plated at a density of 1 × 10^3 cells/100 µL in each well of 96-well microplates and allowed to adhere for 24 h before treatment with test compounds. A concentration range from 4 to 1000 μM was applied for 72 h. The formazan absorption was registered using a microplate reader at λ = 540 nm. Antiproliferative activities were expressed as IC50 values (concentrations required for 50% inhibition of cell growth).
# [4] = tested on: MCF-7 cells; test: MTT antiproliferative assay, MCF-7; type: cell-based, human; details: for IC50: MTT, 72 h, read-out: Mean IC50 ± SD, MCF-7; for SI (Selectivity Index), MCF-7: SI = IC50 MCF-12F/IC50 tumor cells
# Method: as §1, §3
# [5] = tested on: MDA-MB-231 cells; test: MTT antiproliferative assay, MDA-MB-231; type: cell-based, human; details: for IC50: MTT, 72 h, read-out: Mean IC50 ± SD, MDA-MB-231; for SI (Selectivity Index), MDA-MB-231: SI = IC50 MCF-12F/IC50 tumor cells
# Method: as §1, §3
# [6] = tested on: Arthrobacter oxydans NBIMCC 9333; type: cell-based; details: 24 h
# Method: (§4) The parent peptide Temporin A and the novel analogs were subjected to tests against model strains Escherichia coli NBIMCC 8785, Bacillus subtilis NBIMCC 3562, Arthrobacter oxydans NBIMCC 9333, Pseudomonas aeruginosa NBIMCC 3700, and Candida albicans NBIMCC 74, for the assessment of their antimicrobial activity. The strains were acquired from the National Bank for Industrial Microorganisms and Cell Cultures (NBIMCC, Bulgaria). The strain E. coli 8785 was cultured in Luria-Bertani broth (LB, HiMedia, Mumbai, India); B. subtilis 3562—in nutrient broth (NB, HiMedia, Mumbai, India); A. oxydans 9333; P. aeruginosa 3700—in meat peptone agar (MPA) medium; and C. albicans 74—in yeast mold (YM) medium. An incubator shaker ES-20/60 (Biosan, Latvia) was used for the cultivation and was set to 30 °C for B. subtilis 3562, A. oxydans 9333, and C. albicans 74; and 37 °C for E. coli 8785 and P. aeruginosa 3700, with a 24 h shaking period at 120 rpm. The microbial cultures were then adjusted to a turbidity of 0.5 McFarland using a Grant-bio DEN-1B densitometer (Grant Instruments, Royston, UK) for further use.
# (§5) The minimal inhibitory concentration (MIC) of the peptides was determined using the broth dilution method. Stock solutions of the peptides with a concentration of 10 mg/mL in 10% EtOH/H2O were prepared. Suspensions of the bacteria in the corresponding media were added to 96-well U-shaped bottom polystyrene plates (Deltalab S.L., Spain) and exposed to the peptide in the concentration range from 0 to 320 µg/mL, and a 10% EtOH/H2O control, diluted using the same scheme as the peptides, was also used. The plates were then incubated under aerobic conditions at the corresponding temperature for 24 h. The MIC (µg/mL) was assumed as the lowest concentration of the antimicrobial, where there was visible inhibition of the strain. The absorbance was measured at 630 nm (Microplate reader PKL PPC 142, Paramedical srl, Salerno, Italy). To determine the minimal bactericidal concentration (MBC) and minimal fungicidal concentration (MFC), 10 μL from concentrations greater than or equal to the MIC was placed on the corresponding solid nutrient medium. The Petri dishes were then incubated at 30 or 37 °C for 24 h. All experiments were conducted in a triplicate.
# [7] = tested on: Bacillus subtilis NBIMCC 3562; type: cell-based
# Method: as §4, §5
# [8] = tested on: Candida albicans NBIMCC 74; type: cell-based; details: NBIMCC 74, 24 h
# Method: as §4, §5
# [9] = tested on: Escherichia coli NBIMCC 8785; type: cell-based; details: NBIMCC 8785, 24 h
# Method: as §4, §5
# [10] = tested on: Pseudomonas aeruginosa NBIMCC 3700; type: cell-based; details: NBIMCC 3700, 24 h
# Method: as §4, §5
# [11] = tested on: Arthrobacter oxydans NBIMCC 9333; type: cell-based; details: for Inhibition effect, A. oxydans 9333: zone of peptide over zone of antibiotic x 100; for Inhibition zone, A. oxydans 9333: 20 µL per disc, 24 h
# Method: as §4
# (§6) The disk-diffusion method was used as an additional method, with the aim of determining the percent inhibition of the tested samples against the model strains. Sterile plates with LB/NB/MPA/YM agar medium were inoculated on the surface with 100 μL from each microbial culture and incubated at 30 or 37 °C for 30 min, for the suspension to penetrate the agar. After that, sterile paper discs (HiMedia, Mumbai, India) with a diameter of 6 mm were soaked with 20 µL of the peptide solutions with concentrations of 1.4 mg/mL and 10 mg/mL and placed on the agar surface. Sterile paper discs with 10% EtOH/H2O were used as a negative control, and the corresponding strain antibiotic disks (HiMedia, Mumbai, India)—as a positive control. The incubation of the plate was performed at 30/37 °C for 24 h. The antimicrobial activity was analyzed by measuring the diameter of the inhibition zones in mm. The experiments were conducted in triplicates, and the average values for the percent of inhibition as a correlation between the inhibition zone of the peptides over the inhibition zone of the antibiotic multiplied by 100 were calculated.
# [12] = tested on: Bacillus subtilis NBIMCC 3562; type: cell-based; details: for Inhibition effect, B. subtilis 3562: zone of peptide over zone of antibiotic x 100; for Inhibition zone, B. subtilis 3562: 20 µL per disc, 24 h
# Method: as §4, §6
# [13] = tested on: Candida albicans NBIMCC 74; type: cell-based; details: 20 µL per disc, 24 h
# Method: as §4, §6
# [14] = tested on: Escherichia coli NBIMCC 8785; type: cell-based; details: 20 µL per disc, 24 h
# Method: as §4, §6
# [15] = tested on: Pseudomonas aeruginosa NBIMCC 3700; type: cell-based; details: for Inhibition effect, P. aeruginosa 3700: zone of peptide over zone of antibiotic x 100; for Inhibition zone, P. aeruginosa 3700: 20 µL per disc, 24 h
# Method: as §4, §6
smiles,measurement,setting,value
"CC[C@H](C)[C@H](NC(=O)CNC(=O)[C@H](CO)NC(=O)[C@H](CC(C)C)NC(=O)[C@@H](NC(=O)[C@H](CCCNC(=N)N)NC(=O)CNC(=O)[C@@H](NC(=O)[C@H](CC(C)C)NC(=O)[C@@H]1CCCN1C(=O)[C@H](CC(C)C)NC(=O)[C@@H](N)Cc1ccccc1)[C@@H](C)CC)C(C)C)C(=O)N[C@@H](CC(C)C)C(N)=O [DTA, FLPLIG-R-VLSGIL-NH2, reference compound] (H-FLPLIGRVLSGIL-NH2)",CC50,[1],106 ± 4.18 µM
same,CC50 at 24 h,[1],105 ± 4.88 µM
same,PIF (photo irritation factor),[2],1.01
same,IC50,[3],139 ± 8.36 µM
same,IC50,[4],73.2 ± 3.36 µM
same,"SI (Selectivity Index), MCF-7",[4],1.90
same,IC50,[5],115 ± 4.04 µM
same,"SI (Selectivity Index), MDA-MB-231",[5],1.20
same,"MIC, A. oxydans 9333",[6],80 µg/mL
same,"MBC, B. subtilis 3562","[7]; NBIMCC 3562, 24 h",320 µg/mL
same,"MIC, B. subtilis 3562","[7]; NBIMCC 3562, 24 h",80 µg/mL
same,"MIC, C. albicans 74",[8],320 µg/mL
same,"MIC, E. coli 8785",[9],320 µg/mL
same,"MBC, P. aeruginosa 3700",[10],320 µg/mL
"CC[C@H](C)[C@H](NC(=O)CNC(=O)[C@H](CO)NC(=O)[C@H](CC(C)C)NC(=O)[C@@H](NC(=O)[C@H](CCCN)NC(=O)CNC(=O)[C@@H](NC(=O)[C@H](CC(C)C)NC(=O)[C@@H]1CCCN1C(=O)[C@H](CC(C)C)NC(=O)[C@@H](N)Cc1ccccc1)[C@@H](C)CC)C(C)C)C(=O)N[C@@H](CC(C)C)C(N)=O [DTOrn, FLPLIG-Orn-VLSGIL-NH2] (H-FLPLIG[Orn]VLSGIL-NH2; N-terminus assumed)",CC50,"[1]; cytotoxicity, no irradiation, BALB 3T3 clone A31, Neutral Red uptake, read-out: Mean CC50 ± SD, −Irr",337 ± 7.09 µM
same,CC50 at 24 h,"[1]; phototoxicity, irradiated 2.4 J/cm^2, BALB 3T3 clone A31, Neutral Red uptake, read-out: Mean CC50 ± SD, +Irr",345 ± 6.41 µM
same,PIF (photo irritation factor),"[2]; PIF = CC50 −Irr/CC50 +Irr, PIF < 2 = not phototoxic",0.98
same,IC50,[3],306 ± 10.8 µM
same,IC50,[4],196 ± 3.63 µM
same,"SI (Selectivity Index), MCF-7",[4],1.56
same,IC50,[5],303 ± 8.67 µM
same,"SI (Selectivity Index), MDA-MB-231",[5],1.01
same,"Inhibition effect, A. oxydans 9333",[11]; 1.4 mg/mL,0.0%
same,"Inhibition effect, A. oxydans 9333",[11]; 10 mg/mL,43.7%
same,"Inhibition zone, A. oxydans 9333",[11]; peptide 1.4 mg/mL,0.0 mm
same,"Inhibition zone, A. oxydans 9333",[11]; peptide 10 mg/mL,8.3 ± 0.6 mm
same,"Inhibition effect, B. subtilis 3562",[12]; 1.4 mg/mL,0.0%
same,"Inhibition effect, B. subtilis 3562",[12]; 10 mg/mL,32.8%
same,"Inhibition zone, B. subtilis 3562",[12]; peptide 1.4 mg/mL,0.0 mm
same,"Inhibition zone, B. subtilis 3562",[12]; peptide 10 mg/mL,8.2 ± 0.3 mm
same,"Inhibition zone, C. albicans 74",[13]; peptide 1.4 mg/mL,0.0 mm
same,"Inhibition zone, C. albicans 74",[13]; peptide 10 mg/mL,0.0 mm
same,"Inhibition zone, E. coli 8785",[14]; peptide 1.4 mg/mL,0.0 mm
same,"Inhibition zone, E. coli 8785",[14]; peptide 10 mg/mL,0.0 mm
same,"Inhibition effect, P. aeruginosa 3700",[15]; 1.4 mg/mL,0.0%
same,"Inhibition effect, P. aeruginosa 3700",[15]; 10 mg/mL,70.6%
same,"Inhibition zone, P. aeruginosa 3700",[15]; peptide 1.4 mg/mL,0.0 mm
same,"Inhibition zone, P. aeruginosa 3700",[15]; peptide 10 mg/mL,11.3 ± 0.6 mm
same,"MIC, A. oxydans 9333","[6]; broth dilution, 0 to 320 µg/mL, NI = no inhibition monitored",160 µg/mL
same,"MBC, A. oxydans 9333",[6]; plated from concentrations ≥ MIC,160 µg/mL
same,"MIC, B. subtilis 3562","[7]; broth dilution, 0 to 320 µg/mL, 24 h, NI = no inhibition monitored",160 µg/mL
same,"MBC, B. subtilis 3562","[7]; plated from concentrations ≥ MIC, 24 h",320 µg/mL
